Among the data in a polymer gas permeability compilation are N2 permeability, O2 permeability and H2 permeability values, retold here.

The compound `*=CC1CC(C=*)C(COS(=O)(=O)c2ccc(C)cc2)C1` (repeat unit) displayed an N2 permeability of 0.06 Barrer and an O2 permeability of 0.37 Barrer.
For `*C(C(=O)OC(C)C)C(*)C(=O)OC(C)(C)C` (repeat unit), the H2 permeability came out at 133 Barrer, the N2 permeability is 9 Barrer and the O2 permeability worked out at 21 Barrer.
Taken in the same sequence, the figures for `*C(C(=O)OC(C)C)C(*)C(=O)OC1CCCCC1` (repeat unit) were 41 Barrer, 3 Barrer and 8 Barrer.
Taken in the same sequence, the figures for `*C(C(=O)OC1CCCCC1)C(*)C(=O)OC(C)(C)C` (repeat unit) were 72 Barrer, 5 Barrer and 17 Barrer.
Regarding `*CC(*)c1ccc(O)cc1` (repeat unit), the N2 permeability was determined as 0.015 Barrer and the O2 permeability came out at 0.12 Barrer.
In turn, `*CC(C#N)(C#N)CC(*)OC(C)=O` (repeat unit) had an N2 permeability of 0.0138 Barrer and an O2 permeability of 0.16 Barrer.
Taken in the same sequence, the figures for `*O[Si](*)(C)CCCCCC` (repeat unit) were 103 Barrer and 236 Barrer.
For the compound `*[Si](C)(C)CCCCCCCC[Si](*)(C)C` (repeat unit), the N2 permeability amounted to 76.2 Barrer and the O2 permeability is 188 Barrer.
The like results for `*[Si](C)(C)c1ccc([Si](*)(C)C)cc1` (repeat unit) were, in that order, 3.39 Barrer and 14.1 Barrer.
For `*[Si](C)(C)c1cccc([Si](*)(C)C)c1` (repeat unit), the N2 permeability was determined as 31.9 Barrer and the O2 permeability is 75.6 Barrer.
In turn, `*c1ccc(Cc2ccc(N3C(=O)c4ccc(Oc5ccc(C(c6ccc(Oc7ccc8c(c7)C(=O)N(*)C8=O)cc6)(C(F)(F)F)C(F)(F)F)cc5)cc4C3=O)cc2)cc1` (repeat unit) registered an H2 permeability of 8.31 Barrer, an N2 permeability of 0.076 Barrer and an O2 permeability of 0.501 Barrer.
Taken in the same sequence, the figures for `*c1ccc(Oc2ccc(N3C(=O)c4ccc(Oc5ccc(C(c6ccc(Oc7ccc8c(c7)C(=O)N(*)C8=O)cc6)(C(F)(F)F)C(F)(F)F)cc5)cc4C3=O)cc2)cc1` (repeat unit) were 8.95 Barrer, 0.084 Barrer and 0.55 Barrer.
The like results for `*c1ccc(Oc2ccc(N3C(=O)c4ccc(Oc5ccc6c(c5)C(=O)N(*)C6=O)cc4C3=O)cc2)cc1` (repeat unit) were, in that order, 4.77 Barrer, 0.026 Barrer and 0.183 Barrer.
The like results for `*c1ccc(Oc2ccc(N3C(=O)c4ccc(S(=O)(=O)c5ccc6c(c5)C(=O)N(*)C6=O)cc4C3=O)cc2)cc1` (repeat unit) were, in that order, 5.61 Barrer, 0.027 Barrer and 0.2 Barrer.
The compound `*c1ccc2c(c1)C(=O)n1c-2nc2ccc(Oc3ccc4c(c3)nc3n4C(=O)c4ccc(*)cc4-3)cc21` (repeat unit) came in with an H2 permeability of 6.56 Barrer, an N2 permeability of 0.023 Barrer and an O2 permeability of 0.24 Barrer.
For the compound `*c1ccc2c(c1)nc1n2C(=O)c2ccc(C(=O)Oc3ccc(C(c4ccc(OC(=O)c5ccc6c(c5)C(=O)n5c-6nc6ccc(*)cc65)cc4)(C(F)(F)F)C(F)(F)F)cc3)cc2-1` (repeat unit), the H2 permeability stood at 13.3 Barrer, the N2 permeability was 0.155 Barrer and the O2 permeability came to 0.977 Barrer.
The compound `*c1nc2cc(-c3ccc4[nH]c(-c5cc(Br)c(*)cc5Br)nc4c3)ccc2[nH]1` (repeat unit) yielded an H2 permeability of 1.89 Barrer and an O2 permeability of 0.07 Barrer.
